The values below are quoted from earlier work in paper PMC9474474, “Determination of pharmacokinetics and tissue distribution of a novel lutetium-labeled PSMA-targeted ligand, ^177Lu-DOTA-PSMA-GUL, in rats by using LC–MS/MS” (Scientific Reports, 2022).

On the set-up of the data set: method as in PMID 26985056. Conditions: cited from earlier work.

Molecules are shown by their SMILES.

Regarding `O=C([O-])CN1CCN(CC(=O)[O-])CCN(CC(=O)NCC2CCC(C(=O)N[C@@H](Cc3ccc4ccccc4c3)C(=O)NCCCC[C@H](NC(=O)N[C@@H](CCC(=O)O)C(=O)O)C(=O)O)CC2)CCN(CC(=O)[O-])CC1.[177Lu+3]` (some centres unmarked) [^177Lu-PSMA-617], the elimination half-life (humans, radioactivity study) was 90 h. The eliminated by urine result (patients with PSMA-positive tumor phenotype) is reported as “approximately 50%”.
